Source: patent US10166218B2, “3-(1H-indol-2-yl)-1H-pyrazolo[3,4-C]pyridines and therapeutic uses thereof” (Samumed, LLC, priority 2015, dated 2019)

test system: primary human fibroblasts derived from IPF patients (LL29 cells) treated with TGF-β1; α-smooth muscle actin (αSMA); experiment: Inhibition of the fibrotic process: αSMA staining in TGF-β1 treated primary human fibroblasts from IPF patients (LL29 cells); format: cell-based; settings: Fibroblast, 96 h, TGF-β1 20 ng/mL, 4 days, % cells positive for αSMA
Outline: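 LL29 cells plated in F12 with 1% FBS, compounds added as 11-point 1:2 series (10 μM to 1.87 nM, 0.1% DMSO), then TGF-β1 20 ng/mL; 4 days at 37 °C. Fixed, αSMA immunostained, imaged; SYTOX-positive cells excluded. % αSMA-positive cells normalized to TGF-β1 wells; EC50 by non-linear regression, or % inhibition at 10 μM.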

Structure (SMILES)	EC50
Cn1cc(-c2cc3c(-c4cc5ncccc5[nH]4)n[nH]c3cn2)cn1 [Compound 1022, 5-(1-Methyl-1H-pyrazol-4-yl)-3-(1H-pyrrolo[3,2-b]pyridin-2-yl)-1H-pyrazolo[3,4-c]pyridine]	> 10000 nM
c1cnc2cc(-c3n[nH]c4cnc(-c5cncc(CNCC6CCCC6)c5)cc34)[nH]c2c1 [Compound 529, 1-(5-(3-(1H-Pyrrolo[3,2-b]pyridin-2-yl)-1H-pyrazolo[3,4-c]pyridin-5-yl)pyridin-3-yl)-N-(cyclopentylmethyl)methanamine]	> 10000 nM
Fc1ccc(-c2cccc3[nH]c(-c4n[nH]c5cnc(-c6cncnc6)cc45)cc23)cc1 [Compound 55, 3-(4-(4-Fluorophenyl)-1H-indol-2-yl)-5-(pyrimidin-5-yl)-1H-pyrazolo[3,4-c]pyridine]	2660 nM
CC(C)(C)C(=O)Nc1cncc(-c2cc3c(-c4cc5c(-c6ccncc6)cccc5[nH]4)n[nH]c3cn2)c1 [Compound 120, N-(5-(3-(4-(Pyridin-4-yl)-1H-indol-2-yl)-1H-pyrazolo[3,4-c]pyridin-5-yl)pyridin-3-yl)pivalamide]	1030 nM
O=C(Nc1cncc(-c2cc3c(-c4cc5c(-c6ccccc6F)cccc5[nH]4)n[nH]c3cn2)c1)C1CC1 [Compound 76, N-(5-(3-(4-(2-Fluorophenyl)-1H-indol-2-yl)-1H-pyrazolo[3,4-c]pyridin-5-yl)pyridin-3-yl)cyclopropanecarboxamide]	307 nM
c1cc(N2CCCCC2)c2cc(-c3n[nH]c4cnc(-c5cncc(OC6CCCCC6)c5)cc34)[nH]c2c1 [Compound 635, 5-(5-(Cyclohexyloxy)pyridin-3-yl)-3-(4-(piperidin-1-yl)-1H-indol-2-yl)-1H-pyrazolo[3,4-c]pyridine]	1320 nM
O=C(Nc1cncc(-c2cc3c(-c4cc5c(-c6cccc(F)c6)cccc5[nH]4)n[nH]c3cn2)c1)c1ccccc1 [Compound 11, N-(5-(3-(4-(3-Fluorophenyl)-1H-indol-2-yl)-1H-pyrazolo[3,4-c]pyridin-5-yl)pyridin-3-yl)benzamide]	873 nM
CN(C)CCOc1cncc(-c2cc3c(-c4cc5ncccc5[nH]4)n[nH]c3cn2)c1 [Compound 1029, 2-((5-(3-(1H-Pyrrolo[3,2-b]pyridin-2-yl)-1H-pyrazolo[3,4-c]pyridin-5-yl)pyridin-3-yl)oxy)-N,N-dimethylethan-1-amine]	1720 nM
Cc1ccncc1-c1cc2c(-c3cc4c(-c5ccncc5)cccc4[nH]3)n[nH]c2cn1 [Compound 117, 5-(4-Methylpyridin-3-yl)-3-(4-(pyridin-4-yl)-1H-indol-2-yl)-1H-pyrazolo [3,4-c]pyridine]	1040 nM
CC(C)(C)CC(=O)Nc1cncc(-c2cc3c(-c4cc5c(-c6ccncc6)cccc5[nH]4)n[nH]c3cn2)c1 [Compound 128, 3,3-Dimethyl-N-(5-(3-(4-(pyridin-4-yl)-1H-indol-2-yl)-1H-pyrazolo[3,4-c]pyridin-5-yl)pyridin-3-yl)butanamide]	> 10000 nM
c1cc(-c2ccncc2)c2cc(-c3n[nH]c4cnc(-c5cncnc5)cc34)[nH]c2c1 [Compound 139, 3-(4-(Pyridin-4-yl)-1H-indol-2-yl)-5-(pyrimidin-5-yl)-1H-pyrazolo[3,4-c]pyridine]	238 nM
Cc1ccncc1-c1cc2c(-c3cc4c(-c5cccc(F)c5)cccc4[nH]3)n[nH]c2cn1 [Compound 5, 3-(4-(3-Fluorophenyl)-1H-indol-2-yl)-5-(4-methylpyridin-3-yl)-1H-pyrazolo [3,4-c]pyridine]	605 nM
O=C(Nc1cncc(-c2cc3c(-c4cc5c(N6CCCCC6)cccc5[nH]4)n[nH]c3cn2)c1)C1CC1 [Compound 188, N-(5-(3-(4-(Piperidin-1-yl)-1H-indol-2-yl)-1H-pyrazolo[3,4-c]pyridin-5-yl)pyridin-3-yl)cyclopropanecarboxamide]	1370 nM
Nc1cncc(-c2cc3c(-c4cc5ncccc5[nH]4)n[nH]c3cn2)c1 [Compound 507, 5-(3-(1H-Pyrrolo[3,2-b]pyridin-2-yl)-1H-pyrazolo[3,4-c]pyridin-5-yl) pyridin-3-amine]	> 10000 nM
Fc1ccccc1-c1cccc2[nH]c(-c3n[nH]c4cnc(-c5cn[nH]c5)cc34)cc12 [Compound 567, 3-(4-(2-Fluorophenyl)-1H-indol-2-yl)-5-(1H-pyrazol-4-yl)-1H-pyrazolo[3,4-c]pyridine]	27 nM
O=C(Nc1cncc(-c2cc3c(-c4cc5c(-c6ccncc6)cccc5[nH]4)n[nH]c3cn2)c1)C1CCC1 [Compound 133, N-(5-(3-(4-(Pyridin-4-yl)-1H-indol-2-yl)-1H-pyrazolo[3,4-c]pyridin-5-yl)pyridin-3-yl)cyclobutanecarboxamide]	391 nM
O=C(Nc1cncc(-c2cc3c(-c4cc5c(-c6cccc(F)c6)cccc5[nH]4)n[nH]c3cn2)c1)C1CCC1 [Compound 21, N-(5-(3-(4-(3-Fluorophenyl)-1H-indol-2-yl)-1H-pyrazolo[3,4-c]pyridin-5-yl)pyridin-3-yl)cyclobutanecarboxamide]	1700 nM
CN1CCN(c2cccc3[nH]c(-c4n[nH]c5cnc(-c6cncc(NC(=O)C7CCC7)c6)cc45)cc23)CC1 [Compound 245]	4610 nM
CS(=O)(=O)NCc1cc(F)cc(-c2cccc3[nH]c(-c4n[nH]c5cnc(-c6cncc(NC(=O)c7ccccc7)c6)cc45)cc23)c1 [Compound 487, N-(5-(3-(4-(3-Fluoro-5-(methylsulfonamidomethyl)phenyl)-1H-indol-2-yl)-1H-pyrazolo[3,4-c]pyridin-5-yl)pyridin-3-yl)benzamide]	5010 nM
O=C(Nc1cncc(-c2cc3c(-c4cc5ccccc5[nH]4)n[nH]c3cn2)c1)C1CCCCC1 [Compound 275, N-(5-(3-(1H-Indol-2-yl)-1H-pyrazolo[3,4-c]pyridin-5-yl)pyridin-3-yl) cyclohexanecarboxamide]	3270 nM
FC1(F)CCN(Cc2cncc(-c3cc4c(-c5cc6c(N7CCCCC7)cccc6[nH]5)n[nH]c4cn3)c2)C1 [Compound 194, 5-(5-((3,3-Difluoropyrrolidin-1-yl)methyl)pyridin-3-yl)-3-(4-(piperidin-1-yl)-1H-indol-2-yl)-1H-pyrazolo[3,4-c]pyridine]	694 nM
CC(C)(C)CC(=O)Nc1cncc(-c2cc3c(-c4cc5ccccc5[nH]4)n[nH]c3cn2)c1 [Compound 268, N-(5-(3-(1H-Indol-2-yl)-1H-pyrazolo[3,4-c]pyridin-5-yl)pyridin-3-yl)-3,3-dimethylbutanamide]	9980 nM
O=C(Cc1ccccc1)Nc1cncc(-c2cc3c(-c4cc5c(-c6ccc(F)cc6)cccc5[nH]4)n[nH]c3cn2)c1 [Compound 38, N-(5-(3-(4-(4-Fluorophenyl)-1H-indol-2-yl)-1H-pyrazolo[3,4-c]pyridin-5-yl)pyridin-3-yl)-2-phenylacetamide]	659 nM
O=C(Nc1cncc(-c2cc3c(-c4cc5c(-c6ccc(F)cc6)cccc5[nH]4)n[nH]c3cn2)c1)C1CCCCC1 [Compound 51, N-(5-(3-(4-(4-Fluorophenyl)-1H-indol-2-yl)-1H-pyrazolo[3,4-c]pyridin-5-yl)pyridin-3-yl)cyclohexanecarboxamide]	809 nM
CC(C)CC(=O)Nc1cncc(-c2cc3c(-c4cc5c(-c6ccc(F)cc6)cccc5[nH]4)n[nH]c3cn2)c1 [Compound 30, N-(5-(3-(4-(4-Fluorophenyl)-1H-indol-2-yl)-1H-pyrazolo[3,4-c]pyridin-5-yl)pyridin-3-yl)-3-methylbutanamide]	2280 nM

same assay, conditions: Fibroblast, 96 h, TGF-β1 20 ng/mL, 4 days, αSMA, 10 μM, read-out: percent inhibition at 10 μM (given for EC50 of >10 μM)

Structure (SMILES)	inhibition at 10 µM
Cn1cc(-c2cc3c(-c4cc5ncccc5[nH]4)n[nH]c3cn2)cn1 [Compound 1022, 5-(1-Methyl-1H-pyrazol-4-yl)-3-(1H-pyrrolo[3,2-b]pyridin-2-yl)-1H-pyrazolo[3,4-c]pyridine]	44.5%
c1cnc2cc(-c3n[nH]c4cnc(-c5cncc(CNCC6CCCC6)c5)cc34)[nH]c2c1 [Compound 529, 1-(5-(3-(1H-Pyrrolo[3,2-b]pyridin-2-yl)-1H-pyrazolo[3,4-c]pyridin-5-yl)pyridin-3-yl)-N-(cyclopentylmethyl)methanamine]	0%
CC(C)(C)CC(=O)Nc1cncc(-c2cc3c(-c4cc5c(-c6ccncc6)cccc5[nH]4)n[nH]c3cn2)c1 [Compound 128, 3,3-Dimethyl-N-(5-(3-(4-(pyridin-4-yl)-1H-indol-2-yl)-1H-pyrazolo[3,4-c]pyridin-5-yl)pyridin-3-yl)butanamide]	23.7%
Nc1cncc(-c2cc3c(-c4cc5ncccc5[nH]4)n[nH]c3cn2)c1 [Compound 507, 5-(3-(1H-Pyrrolo[3,2-b]pyridin-2-yl)-1H-pyrazolo[3,4-c]pyridin-5-yl) pyridin-3-amine]	0%
